Reference: patent US20110118283A1, “Substituted Pyrrolidine-2-Carboxamides” (priority 2009, published 2011)

Target: MDM2 (Homo sapiens, UniProt Q00987)
Test: HTRF assay of inhibition of the p53-MDM2 interaction
Assay type: binding
Conditions: GST-MDM2 / biotinylated p53 peptide, bsa 0.02%
Experimental: The ability of the compounds to inhibit the interaction between p53 and MDM2 proteins was measured by an HTRF (homogeneous time-resolved fluorescence) assay in which recombinant GST-tagged MDM2 binds to a peptide that resembles the MDM2-interacting region of p53 (Lane et al.). Binding of GST-MDM2 protein and p53-peptide (biotinylated on its N-terminal end) is registered by the FRET (fluorescence resonance energy transfer) between Europium (Eu)-labeled anti-GST antibody and streptavidin-conjugated Allophycocyanin (APC).
[…] Add 10 uL diluted compounds (1:5 dilution in reaction buffer) to each well, mix by shaking. Add 20 uL biotinylated p53 peptide (180 nM working solution) in reaction buffer to each well and mix on shaker. Incubate at 37° C. for 1 h. Add 20 uL streptavidin-APC and Eu-anti-GST antibody mixture (6 nM Eu-anti-GST and 60 nM streptavidin-APC working solution) in TBS buffer with 0.2% BSA, shake at room temperature for 30 minutes and read using a TRF-capable plate reader at 665 and 615 nm (Victor 5, Perkin ElmerWallac). If not specified, the reagents were purchased from Sigma Chemical Co.

Sequence of MDM2 (Q00987 whole entry, species assumed): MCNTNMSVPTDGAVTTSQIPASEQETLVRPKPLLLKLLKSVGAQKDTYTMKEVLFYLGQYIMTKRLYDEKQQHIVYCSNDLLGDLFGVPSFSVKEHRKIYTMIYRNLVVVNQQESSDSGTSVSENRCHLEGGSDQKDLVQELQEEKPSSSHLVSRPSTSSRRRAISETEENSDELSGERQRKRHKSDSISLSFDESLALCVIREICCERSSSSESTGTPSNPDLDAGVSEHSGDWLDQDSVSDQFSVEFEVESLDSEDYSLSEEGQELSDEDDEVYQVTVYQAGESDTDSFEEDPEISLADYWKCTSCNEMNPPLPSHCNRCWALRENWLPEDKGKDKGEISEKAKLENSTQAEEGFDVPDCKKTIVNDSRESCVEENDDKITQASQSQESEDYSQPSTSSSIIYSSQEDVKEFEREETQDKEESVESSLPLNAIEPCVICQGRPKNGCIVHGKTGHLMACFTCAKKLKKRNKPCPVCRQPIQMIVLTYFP

SMILES	IC50
CC(C)(C)C[C@@H]1N[C@@H](C(=O)NCC[C@H](O)CO)[C@H](c2cccc(Cl)c2)[C@@]1(C#N)c1cc(Br)cs1 (mixture of isomers) [Example 7, rac-(2R,3R,4R,5S)-4-(4-bromo-thiophen-2-yl)-3-(3-chloro-phenyl)-4-cyano-5-(2,2-dimethyl-propyl)-pyrrolidine-2-carboxylic acid ((S)-3,4-dihydroxy-butyl)-amide]	5.86 µM
CC(C)(C)C[C@@H]1N[C@@H](C(=O)NCC[C@H](O)CO)[C@H](c2cccc(Cl)c2)[C@@]1(C#N)c1cccnc1 (mixture of isomers) [Example 39, rac-(2R,3R,4R,5S)-3-(3-chloro-phenyl)-4-cyano-5-(2,2-dimethyl-propyl)-4-pyridin-3-yl-pyrrolidine-2-carboxylic acid ((S)-3,4-dihydroxy-butyl)-amide]	1.97 µM

The next molecules have a lower IC50 than those just listed; values first:

IC50	SMILES
1.23 µM	CC(C)(C)C[C@@H]1N[C@@H](C(=O)NCC[C@H](O)CO)[C@H](c2cccc(Cl)c2F)[C@@]1(C#N)c1ncc(Cl)cc1F (mixture of isomers) [Example 25, rac-(2R,3S,4S,5S)-3-(3-chloro-2-fluoro-phenyl)-4-(5-chloro-3-fluoro-pyridin-2-yl)-4-cyano-5-(2,2-dimethyl-propyl)-pyrrolidine-2-carboxylic acid ((S)-3,4-dihydroxy-butyl)-amide]
0.201 µM	COC(=O)c1ccc(NC(=O)[C@@H]2N[C@@H](CC(C)(C)C)[C@](C#N)(c3ccc(Br)cn3)[C@H]2c2cccc(Cl)c2F)cc1 (racemic) [Example 34, rac-4-{[(2R,3S,4S,5S)-4-(5-bromo-pyridin-2-yl)-3-(3-chloro-2-fluoro-phenyl)-4-cyano-5-(2,2-dimethyl-propyl)-pyrrolidine-2-carbonyl]-amino}-benzoic acid methyl ester]
0.061 µM	CC(C)(C)C[C@@H]1N[C@@H](C(=O)NCC[C@H](O)CO)[C@H](c2cccc(Cl)c2)[C@@]1(C#N)c1ccc(Cl)nc1 (mixture of isomers) [Example 44, rac-(2R,3R,4R,5S)-3-(3-chloro-phenyl)-4-(6-chloro-pyridin-3-yl)-4-cyano-5-(2,2-dimethyl-propyl)-pyrrolidine-2-carboxylic acid ((S)-3,4-dihydroxy-butyl)-amide]
